ChEMBL document CHEMBL2401715, “Synthesis, antitumor and antibacterial activities of some novel tetrahydrobenzo[4,5]thieno[2,3-d]pyrimidine derivatives” (Eur J Med Chem, 2013)

Tests used:
Pseudomonas aeruginosa [1] = assay: Antibacterial activity against Pseudomonas aeruginosa ATCC 10145 assessed as growth inhibition after 24 to 48 hrs by kirby-bauer disc diffusion method; format: functional; further: test concentration or dose not given here
Escherichia coli = assay: Antibacterial activity against Escherichia coli ATCC 11775 assessed as growth inhibition after 24 to 48 hrs by kirby-bauer disc diffusion method; format: functional, DSM 30083 = JCM 1649; further: test concentration or dose not given here
MCF7 = assay: Cytotoxicity against human MCF7 cells assessed as cell survival after 48 hrs by SRB assay; format: functional, cell-based; conditions: MCF7, 48 h
HepG2 = assay: Cytotoxicity against human HepG2 cells assessed as cell survival after 48 hrs by SRB assay; format: functional, cell-based; conditions: HepG2, 48 h
Staphylococcus aureus [2] = assay: Antibacterial activity against Staphylococcus aureus ATCC 12600 assessed as growth inhibition after 24 to 48 hrs by kirby-bauer disc diffusion method; format: functional; further: test concentration or dose not given here
Bacillus subtilis = assay: Antibacterial activity against Bacillus subtilis ATCC 6051 assessed as growth inhibition after 24 to 48 hrs by kirby-bauer disc diffusion method; format: functional; further: test concentration or dose not given here
Staphylococcus aureus [3] = assay: Antibacterial activity against Staphylococcus aureus ATCC 12600 assessed as growth inhibition by broth microdilution method; format: functional
Pseudomonas aeruginosa [4] = assay: Antibacterial activity against Pseudomonas aeruginosa ATCC 10145 assessed as growth inhibition by broth microdilution method; format: functional

SMILES	diameter of the inhibition zone (DIZ) (Pseudomonas aeruginosa [1]) [mm]	diameter of the inhibition zone (DIZ) (Escherichia coli) [mm]	IC50 (MCF7) [µM]	IC50 (HepG2) [µM]	diameter of the inhibition zone (DIZ) (Staphylococcus aureus [2]) [mm]	diameter of the inhibition zone (DIZ) (Bacillus subtilis) [mm]	MIC (Staphylococcus aureus [3]) [µg/mL]	MIC (Pseudomonas aeruginosa [4]) [µg/mL]
COc1cc(-c2nc3sc4c(c3c(=O)n2-c2nc3cc(C)ccc3s2)CCCC4)cc(OC)c1OC	12	12	65.6	> 192	14	11	–	–
COc1cc(-c2nc3sc4c(c3c(=O)n2-c2nc3cc([N+](=O)[O-])ccc3s2)CCCC4)cc(OC)c1OC	14	15	21.6	36.9	15	14	–	–
O=C(NO)Nc1nc(/C=C/c2ccccc2)nc2sc3c(c12)CCCC3	12	10	6.54	3.27	10	11	–	–
O=c1[nH]c(/C=C/c2ccccc2[N+](=O)[O-])nc2sc3c(c12)CCCC3	0	10	11.9	11.9	0	0	–	–
O=C1NOCC1n1c(/C=C/c2ccccc2)nc2sc3c(c2c1=O)CCCC3 (configuration not stated)	16	15	39.4	6.86	19	15	–	–
Cc1c2ccc(N)cc2nc2cc(Nc3nc(/C=C/c4ccccc4)nc4sc5c(c34)CCCC5)ccc12	12	12	0.58	1.36	21	20	–	–
COc1cc(-c2nc3sc4c(c3c(=O)n2-c2ccc(S(N)(=O)=O)cc2)CCCC4)cc(OC)c1OC	13	12	37.1	> 190	9	14	–	–
O=c1cc(-n2c(/C=C/c3ccccc3)nc3sc4c(c3c2=O)CCCC4)[nH]c(=O)[nH]1	15	15	11.2	67.2	18	16	–	–
NS(=O)(=O)c1ccc(-n2c(/C=C/c3ccccc3)nc3sc4c(c3c2=O)CCCC4)cc1	15	15	0.43	1.29	14	14	–	–
COc1cc(-c2nc3sc4c(c3c(=O)n2C(N)=S)CCCC4)cc(OC)c1OC	13	14	77.6	> 232	12	12	–	–
COc1cccc2c1C(=O)c1c(O)c3c(c(O)c1C2=O)C[C@@](O)(C(=O)CO)C[C@@H]3O[C@H]1C[C@H](N)[C@H](O)[C@H](C)O1 [DOXORUBICIN]	–	–	–	7.36	–	–	–	–
C/C(=C\c1ccccc1)c1nc2sc3c(c2c(=O)[nH]1)CCCC3	0	0	24.8	33.2	0	0	–	–
O=C(O)c1ccc(-n2c(/C=C/c3ccccc3)nc3sc4c(c3c2=O)CCCC4)cc1	14	16	45.3	36.9	19	14	–	–
COc1cc(-c2nc3sc4c(c3c(=O)n2C(Cc2ccccc2)C(=O)O)CCCC4)cc(OC)c1OC (configuration not stated)	13	13	50.1	19.4	10	12	–	–
COc1cc(-c2nc3sc4c(c3c(=O)n2C2CONC2=O)CCCC4)cc(OC)c1OC (configuration not stated)	14	17	54.9	24.9	15	15	–	–
NC(=O)n1c(/C=C/c2ccccc2)nc2sc3c(c2c1=O)CCCC3	15	14	13.4	18.5	16	14	–	–

SMILES	diameter of the inhibition zone (DIZ) (Pseudomonas aeruginosa [1]) [mm]	diameter of the inhibition zone (DIZ) (Escherichia coli) [mm]	IC50 (MCF7) [µM]	IC50 (HepG2) [µM]	diameter of the inhibition zone (DIZ) (Staphylococcus aureus [2]) [mm]	diameter of the inhibition zone (DIZ) (Bacillus subtilis) [mm]	MIC (Staphylococcus aureus [3]) [µg/mL]	MIC (Pseudomonas aeruginosa [4]) [µg/mL]
NC(=S)n1c(/C=C/c2ccccc2)nc2sc3c(c2c1=O)CCCC3	13	13	10.6	17.7	14	13	–	–
O=C(O)C(Cc1cc2ccccc2[nH]1)n1c(/C=C/c2ccccc2)nc2sc3c(c2c1=O)CCCC3 (configuration not stated)	0	0	> 202	29.7	0	0	–	–
COc1cc(-c2nc3sc4c(c3c(=O)n2-c2nc3ccccc3s2)CCCC4)cc(OC)c1OC	15	15	11.5	5.14	14	13	–	–
O=c1c2c3c(sc2nc(/C=C/c2ccccc2)n1-c1nc2cc([N+](=O)[O-])ccc2s1)CCCC3	15	14	1.23	10.3	15	14	–	–
COc1cc(-c2nc3sc4c(c3c(=O)n2-c2ccc(C(=O)O)cc2)CCCC4)cc(OC)c1OC	10	10	> 203	29.6	11	12	–	–
O=C(O)C(Cc1ccccc1)n1c(/C=C/c2ccccc2)nc2sc3c(c2c1=O)CCCC3 (configuration not stated)	14	14	45.3	31.5	16	13	–	–
CC1(C)S[C@@H]2[C@H](NC(=O)[C@H](N)c3ccccc3)C(=O)N2[C@H]1C(=O)O [AMPICILLIN]	17	22	–	–	18	20	48	56
O=c1c2c3c(sc2nc(/C=C/c2ccccc2)n1-c1nc2ccccc2s1)CCCC3	14	13	4.3	10.6	16	13	–	–
O=C(NO)n1c(/C=C/c2ccccc2)nc2sc3c(c2c1=O)CCCC3	14	13	23.9	52	15	12	–	–
COc1cc(-c2nc(NC(=O)NO)c3c4c(sc3n2)CCCC4)cc(OC)c1OC	0	0	14.2	2.32	0	0	–	–
COc1cc(-c2nc3sc4c(c3c(=O)n2C(N)=O)CCCC4)cc(OC)c1OC	17	16	26.2	25.8	16	16	–	–
O=c1[nH]c(/C=C/c2ccccc2)nc2sc3c(c12)CCCC3	0	0	28.2	12	0	0	–	–
COc1cc(-c2nc3sc4c(c3c(=O)n2C(Cc2cc3ccccc3[nH]2)C(=O)O)CCCC4)cc(OC)c1OC (configuration not stated)	0	0	> 179	30.9	0	0	–	–
COc1cc(-c2nc3sc4c(c3c(=O)n2-c2cc(=O)[nH]c(=O)[nH]2)CCCC4)cc(OC)c1OC	14	14	83.3	86.4	11	11	–	–
COc1cc(-c2nc3sc4c(c3c(=O)n2C(=O)NO)CCCC4)cc(OC)c1OC	13	14	71.2	14.4	12	13	–	–
Cc1ccc2sc(-n3c(/C=C/c4ccccc4)nc4sc5c(c4c3=O)CCCC5)nc2c1	14	14	15.8	36.7	16	15	–	–
